Patent EP0614464B1, “PEPTIDES AND ANTIBODIES FOR TREATMENT OF RHEUMATOID ARTHRITIS” (PEPTIDE THERAPEUTICS LIMITED, priority 1991, dated 1993)

Tests used:
IgA-α1AT complex = assay: HPLC analysis of in vitro dissociation of purified IgA-α1AT complex; format: biochemical, human; details: Table 5; minimum concentration giving complex : free IgA ratio at 20% (base-line 14%); 90 minutes at 37°C; >500µM = no complex dissociation at highest concentration tested
Description: The ability of the peptides of the invention to dissociate purified IgA-α1AT complex in vitro was tested as described below. The anti-rheumatic drug D-penicillamine and other synthetic peptides were used as controls. […] The sample was monitored at wavelength 206nm at a flow rate of 1ml/minute with phosphate buffer (0.1M) pH 7.1. […] They represent the ability of the peptides to dissociate the IgA-α1AT complex in vitro. In these experiments, the base-lines level comprises a complex : free IgA ratio of 14% . The minimum concentration of peptide taken to produce a positive dissociation effect is that which results in a complex: free IgA ratio at 20%. In the results tables, all the peptide values are expressed in µMoles.

[1] = system: alternative complement (C3) pathway; assay: Inhibition of C3-activation: preventing IgA-α1AT complex from activating the alternative complement pathway, rabbit erythrocyte haemolysis read-out; format: biochemical, human; details: Table 5; minimum concentration needed to prevent C3 activation
[2] = system: mouse macrophage cell line (PU 518); assay: Macrophage inhibition assay: IgA-α1AT complex-stimulated release of lysosomal enzymes; format: cell-based; details: Table 5, head prints no unit, b70 says all values of the results tables are in µMoles, concentration needed to prevent 50% release of β-glucoromidase
Description: A mouse macrophage cell line (PU 518) was stimulated to release lysosomal enzymes by the addition of purified human IgA-α1AT complex. The degree to which this release was then inhibited by the peptides or other drugs was investigated, with the degree of inhibition being indicative of activity; the concentration of peptide or other test drugs giving 50% inhibition being recorded. Briefly the method was as follows:
25µl of peptide or drug was double diluted in […] + 10% foetal calf serum (FCS) in a sterile tissue culture 96 well plate. 25µl of IgA-α1AT complex in RPMI 1640 +10% FCS at about 0.2mg/ml was then added to all wells. 50µl of cells at a concentration of 2 x 10^6 cells/ml in RPMI 1640 + 10% FCS was then added to each well.
Control wells of cells alone and cells + IgA-α1AT complex were also prepared. The plate was then gently mixed and incubated overnight (16hr) at 37°C in a 4% CO2 atmosphere. Plates were then centrifuged at 1200 rpm for 10 minutes in a bench top centrifuge.
40µl of supernatant was then taken from each well and added to a 96 well polystyrene assay plate, to which was added 40µl of 160mM acetate buffer (pH 4.3) containing 2mM phenolphthalein-β-D-glucuronic acid. To obtain a standard curve, dilutions of phenolphthalein in acetate buffer from 100-5µg/ml were also added to separate wells in the assay plate.
The plates were then incubated at 37°C for 4 hours before 150µl of 0.2M glycine/NaOH buffer (pH 10.6) containing 0.2M NaCl was added to stop the reaction.
Plates were then shaken for 3 minutes before the optical density at 570nm was read on a plate reader, and the amount of β-D-glucuronic acid released from the cells calculated. The concentration of peptide or drug giving 50% inhibition of release was then noted.
The results for the macrophage inhibition assays are expressed as the concentration needed to prevent 50% release of β-glucoromidase.

In the case of CC(C)(S)[C@@H](N)C(=O)O [D-Penicillamine], the “HPLC minimum” value (IgA-α1AT complex) is reported as 250 µM, the “C' minimum” value [1] is reported as 31 µM and the IC50 [2] is reported as 500 µM.
